We go through one molecule from US8802638B1, “Flavonoid treatment of glycogen synthase kinase-based disease” (University of South Florida, priority 2007, dated 2014).

For one assay, the system named is SweAPP N2a cells. In words: APP proteolysis (Aβ ELISA, IP, APP CTF Western blot) in SweAPP N2a cells. In kind it is cell-based, murine. As to the method: Cultured cells or mouse brain were lysed in ice-cold lysis buffer described above, and an aliquot corresponding to 50 μg of total protein was electrophoretically separated using 12% Tris-HCl or 16.5% Tris-tricine gels. Electrophoresed proteins were then transferred to PVDF membranes, washed in dH2O, and blocked for 1 hr at ambient temperature in Tris-buffered saline (TBS; Bio-Rad) containing 5% (w/v) non-fat dry milk. After blocking, membranes were hybridized for 1 hr at ambient temperature with various primary antibodies. Membranes were then washed 3× for 5 min each in dH2O and incubated for 1 hr at ambient temperature with the appropriate HRP-conjugated secondary antibody (1:1,000). Antibodies were obtained against the amino-terminus and carboxyl-terminus of PS1 (Chemicon, Temecula, Calif.), amino-terminus and carboxyl-terminus of APP (22C11), actin (Roche, Basel, Switzerland), Aβ (6E10, 48G) (Signet Laboratories, Dedham, Mass.), phosphor-GSK3α (ser^21, clone BK202) (Upstate, Lake Placid, N.Y.), phospho-GSK3α/β (pTyr^279/216) (Sigma), phospho-GSK-3β (Ser^9) (Sigma) and total GSK-3α/β (Sigma). All antibodies were diluted in TBS containing 5% (w/v) of non-fat dry milk. Blots were developed using the luminol reagent (Pierce Biotechnology). Densitometric analysis was done as previously described using a FluorS Multiimager with Quantity One™ software (39). Immunoprecipitation was performed for detection of sAPP-α, sAPP-β and Aβ by incubating 200 μg of total protein of each sample with various sequential combinations of 6E10 (1:100) and/or 22C11 (1:100) antibodies overnight with gentle rocking at 4° C., and 10 μL of 50% protein A-Sepharose beads were then added to the sample (1:10; Sigma) prior to gentle rocking for an additional 4 hrs at 4° C. Following washes with 1× cell lysis buffer, samples were subjected to Western blot as described above. Antibodies used for Western blot included the APP-carboxyl-terminal antibody (1:50)), amino-terminal APP antibody (clone 22C11), or 6E10 (1:1,000), or actin antibody (1:1,500; as an internal reference control). γ-secretase activity was quantified in cell lysates using available kits based on secretase-specific peptides conjugated to fluorogenic reporter molecules.
SweAPP N2a cells and primary neuronal cells derived from Tg2576 mice were treated with varying doses of luteolin to examine luteolin's effect on APP proteolysis. Cellular extracts were collected and analyzed using immunoprecipitation (IP), Western blot, and ELISA. […] See FIGS. 1 through 2(B) and 5 through 6(B). SweAPP N2a and primary Tg2576-derived neuronal cells CTF profiles were analyzed following luteolin treatment to determine at which level luteolin impacts amyloid processing.
Background: ELISA stands for enzyme-linked immunosorbent assay.

For assay [1], the system named is GSK-3α/β. In words: GSK-3 activation in brain homogenates of luteolin-treated Tg2576 mice. Type of assay: in vivo. To be noted: 20 mg/kg i.p. daily for 30 days. How it is done:
(§1) Sixteen (8♂/8♀) Tg2576 mice (Taconic, Germantown, N.Y.) were used; 8 mice received luteolin, and the other 8 received phosphate buffered saline (PBS). Beginning at 8 months of age, Tg2576 mice were intraperitoneally injected with luteolin (20 mg/kg) or PBS daily for 30 days based on previously described methods. These mice were then sacrificed at 9 months of age for analyses of Aβ levels and Aβ load in the brain according to previously described methods. Animals were housed and maintained in the College of Medicine Animal Facility at the University of South Florida (USF), and all experiments were in compliance with protocols approved by the USF Institutional Animal Care and Use Committee.
(§2) Cultured cells or mouse brain were lysed in ice-cold lysis buffer described above, and an aliquot corresponding to 50 μg of total protein was electrophoretically separated using 12% Tris-HCl or 16.5% Tris-tricine gels. […] Densitometric analysis was done as previously described using a FluorS Multiimager with Quantity One™ software (39). […] Antibodies used for Western blot included the APP-carboxyl-terminal antibody (1:50)), amino-terminal APP antibody (clone 22C11), or 6E10 (1:1,000), or actin antibody (1:1,500; as an internal reference control). γ-secretase activity was quantified in cell lysates using available kits based on secretase-specific peptides conjugated to fluorogenic reporter molecules. […]

In assay [2] the target is T1, GSK-3α/β (Mus musculus, UniProt Q2NL51). In words: Western blot of phosphorylated GSK-3α/β forms in Tg2576-derived neuronal cells. The note with it: 20 μM. In kind it is cell-based, mice. The arrangement: endogenous in cells; host or cells: primary neuronal cells derived from Tg2576 mice. As to the method:
as §2, with “gels. Electrophoresed proteins were then transferred to PVDF membranes, washed in dH2O, and blocked for 1 hr at ambient temperature in Tris-buffered saline (TBS; Bio-Rad) containing 5% (w/v) non-fat dry milk. After blocking, membranes were hybridized for 1 hr at ambient temperature with various primary antibodies. Membranes were then washed 3× for 5 min each in dH2O and incubated for 1 hr at ambient temperature with the appropriate HRP-conjugated secondary antibody (1:1,000).” for “gels.”

A further assay concerns TACE, ADAM10, sAPPα. Briefly: non-amyloidogenic APP processing (TACE, ADAM10 maturation, sAPPα release). In kind it is cell-based. The note with it: data not shown. An excerpt:
The presence of phosphorylated PS1 CTFs corresponds with reduction of Aβ generation and accumulation of the β-CTF of APP, as was observed following luteolin treatment. The accumulation β-CTFs following luteolin treatment is a fraction of β-CTF seen after direct γ-secretase inhibitor treatment (data not shown). In view of this finding, selective GSK-3 inactivation is a less toxic, more regulative, substrate-specific mode of γ-secretase inhibition. Earlier studies routinely employed phorbol-12,13-dibutyrate (PDBu), a potent PKC activator, as their phosphorylating agent. Thus, luteolin was tested for similar PKC activation, rather than a GSK-3 inhibitor. […] Additionally, there are no indications GSK-3α inhibition affects non-amyloidogenic processing of APP, since luteolin, SB-415286, and GSK-3α RNAi treatment have no effect on the maturation of TACE, ADAM10, or sAPPα release (data not shown), which are all strongly associated with PKC activation.

The test system of another assay is β-catenin. Briefly: β-catenin after luteolin treatment. The note with it: data not shown. Type of assay: cell-based.
For another assay, the system named is PS1. In words: PS1 processing and PS1-APP association in brain homogenates of luteolin-treated Tg2576 mice. In kind it is in vivo. The note with it: 20 mg/kg i.p. daily for 30 days. How it is done:
as §1
as §2, with “gels. Electrophoresed proteins were then transferred to PVDF membranes, washed in dH2O, and blocked for 1 hr at ambient temperature in Tris-buffered saline (TBS; Bio-Rad) containing 5% (w/v) non-fat dry milk. After blocking, membranes were hybridized for 1 hr at ambient temperature with various primary antibodies. Membranes were then washed 3× for 5 min each in dH2O and incubated for 1 hr at ambient temperature with the appropriate HRP-conjugated secondary antibody (1:1,000).” for “gels.”
Brain homogenates from these mice were subsequently analyzed by immunoprecipitation, Western blot, and ELISA, seen in FIGS. 28(A) through 37. […]

Assay [3] deals with T1, GSK-3α/β. Briefly: Western blot of phosphorylated GSK-3α/β forms in SweAPP N2a cells. Type of assay: cell-based, murine. Set-up: endogenous in cells; host or cells: SweAPP N2a cells. The note with it: 20 μM. How it is done:
as §2, with “gels. Electrophoresed proteins were then transferred to PVDF membranes, washed in dH2O, and blocked for 1 hr at ambient temperature in Tris-buffered saline (TBS; Bio-Rad) containing 5% (w/v) non-fat dry milk. After blocking, membranes were hybridized for 1 hr at ambient temperature with various primary antibodies. Membranes were then washed 3× for 5 min each in dH2O and incubated for 1 hr at ambient temperature with the appropriate HRP-conjugated secondary antibody (1:1,000).” for “gels.”
In general terms: Immunoblotting shows a protein as a band on a membrane.

T1 sequence (Q2NL51 2-490): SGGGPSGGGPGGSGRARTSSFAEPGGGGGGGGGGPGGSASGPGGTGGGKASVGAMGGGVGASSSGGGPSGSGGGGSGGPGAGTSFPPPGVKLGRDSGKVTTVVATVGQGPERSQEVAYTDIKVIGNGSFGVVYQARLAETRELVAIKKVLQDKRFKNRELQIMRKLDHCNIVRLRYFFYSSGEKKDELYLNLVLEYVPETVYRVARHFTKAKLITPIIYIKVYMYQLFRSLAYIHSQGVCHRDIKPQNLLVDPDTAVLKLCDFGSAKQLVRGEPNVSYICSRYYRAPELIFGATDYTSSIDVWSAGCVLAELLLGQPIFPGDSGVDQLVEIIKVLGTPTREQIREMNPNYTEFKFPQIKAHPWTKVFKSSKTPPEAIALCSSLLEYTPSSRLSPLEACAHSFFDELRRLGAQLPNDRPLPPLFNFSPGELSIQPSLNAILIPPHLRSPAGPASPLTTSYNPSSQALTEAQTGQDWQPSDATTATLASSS

Regarding `O=c1cc(-c2ccc(O)c(O)c2)oc2cc(O)cc(O)c12` [luteolin], in the assay with SweAPP N2a cells (dose dependent, 12 hrs, Western blot densitometry, SweAPP N2a cells), the “accumulation of both α and β CTFs (increase over control)” value is given as 2-3 fold. The “Aβ1-40, 42 peptide generation abrogated” value in the assay with SweAPP N2a cells (luteolin 20 μM, 12 hrs, SweAPP N2a cells) was more than 70%; in the assay with SweAPP N2a cells (luteolin 40 μM, 12 hrs, SweAPP N2a cells), more than 85%. Also, in the assay on SweAPP N2a cells (result in words, ELISA/IP/Western blot), the “Aβ1-40, 42 production” value is on record as “effectively reduced Aβ1-40, 42 production in either cell line in a dose dependent manner”. The “GSK-3α/β active isoforms (ratio of phosphorylated to holo GSK-3)” value in the assay on GSK-3α/β [1] is on record as “reduced when compared to control”. For the same molecule, the “levels of serine 21-phosphorylated, inactive GSK-3α isoforms” value on GSK-3α/β [2] and on GSK-3α/β [3] (SweAPP N2a cells) was “increased the levels” each time. Moreover, the “maturation of TACE, ADAM10, or sAPPα release” value in the assay on TACE, ADAM10, sAPPα was “no effect”. Further, the β-catenin result in the assay on β-catenin was “remains unaffected”. The “holo APP expression in brain homogenates” value in the assay on PS1 is “no significant changes”. Besides, in the assay on PS1 (IP with PS1 antibody), the “PS1-APP association in brain homogenates” value is on record as “effectively abolished PS1-APP association”. Moreover, in the assay with PS1 (brain homogenates), the “PS1 processing (PS1 CTF to actin ratio)” value was “significantly lower levels of PS1 processing”. Moreover, the “levels of tyrosine 279 phosphorylated active GSK-3α isoforms” value at GSK-3α/β [3] (through 3 hrs (FIGS. 13 and 17)) is on record as “concurrently decreased in time-dependent manner”.
